Tests used:
A2058 cells = assay: Cell viability assay (Cell-Titer-Glo) in A2058 cells; assay type: cell-based; conditions: Homo sapiens, 48 hour treatment, test compounds 1 nM to 1 μM
Procedure: (§1) Cell viability assays were run using standard protocols known to those of skill in art. Cells were plated in 96 well plates at the density of 3,000-10,000 cells per well. Twenty four hours later, cells were treated with increasing concentration of test compounds (1 nM to 1 μM). After another 48 hour, cell survival was measured using Cell-Titer-Glo® reagent (Promega) following the protocol provided by the manufacture. The IC50 value was determined as the concentration of test compound that kills 50% of the cell population.
(§2) Cell viability data generated according to the protocol described above was generated for representative compounds in A2058 and U937 cells. The compounds shown in Table 1 were prepared by the methods described herein for structurally similar compounds. The reference compound was a synthetic diazonamide analog having the structure: […]

U937 cells = assay: Cell viability assay (Cell-Titer-Glo) in U937 cells; assay type: cell-based; conditions: Homo sapiens, U-937, 48 hour treatment, test compounds 1 nM to 1 μM
Procedure: as §1, §2

For CCC[C@@H]1NC(=O)[C@@H](NC(=O)[C@@H](O)C(C)C)Cc2ccc3c(c2)C2(C4=C(c5nc(C(=O)OC)co5)N=C1O4)c1ccccc1NC2O3 (stereo partly drawn) [Compound 52], the IC50 (A2058 cells) was 257 nM and the IC50 (U937 cells) was 71 nM.
In the case of COC(=O)c1coc(-c2nc3oc2[C@@]24c5ccccc5NC2Oc2ccc(cc24)C[C@H](NC(=O)[C@@H](O)C(C)C)C(=O)NC3)n1 (stereo partly drawn) [Compound 53], the IC50 (A2058 cells) is reported as greater than 1000 nM and the IC50 (U937 cells) is reported as greater than 1000 nM.
In the case of COC(=O)c1coc(-c2nc3oc2[C@@]24c5ccccc5NC2Oc2ccc(cc24)C[C@H](NC(=O)[C@@H](O)C(C)C)C2=NC3CO2)n1 (stereo partly drawn) [Compound 54], the IC50 (A2058 cells) is reported as greater than 1000 nM and the IC50 (U937 cells) is reported as greater than 1000 nM.
With CC(C)[C@H](O)C(=O)N[C@H]1Cc2ccc3c(c2)[C@]2(C4=C(c5nc(CO)co5)N=C(O4)[C@H](C)NC1=O)c1ccccc1NC2O3 (stereo partly drawn) [Compound 55] the IC50 (A2058 cells) was greater than 1000 nM and the IC50 (U937 cells) was greater than 1000 nM.
Work on COC(=O)c1coc(-c2nc3oc2[C@@]24c5ccccc5NC2Oc2ccc(cc24)C[C@H](NC(=O)[C@@H](O)C(C)C)C(=O)N[C@H]3C)n1 (stereo partly drawn) [Compound 56] yielded an IC50 (A2058 cells) of 968 nM and an IC50 (U937 cells) of 588 nM.
CC(C)[C@H](O)C(=O)N[C@H]1Cc2ccc3c(c2)[C@]2(C4=C(c5nc(CO)co5)N=C(O4)[C@H](C(C)(C)C)NC1=O)c1ccccc1N[C@@H]2O3 [Compound 57] showed an IC50 (A2058 cells) of 8.3 nM and an IC50 (U937 cells) of 5.3 nM.
For COC(=O)c1coc(-c2nc3oc2[C@@]24c5ccccc5NC2Oc2ccc(cc24)C[C@H](NC(=O)[C@@H](O)C(C)C)C(=O)N[C@H]3C2CCCCC2)n1 (stereo partly drawn) [Compound 58], the IC50 (A2058 cells) was greater than 1000 nM and the IC50 (U937 cells) was 445 nM.
CC(C)[C@H](O)C(=O)N[C@H]1Cc2ccc3c(c2)[C@]2(C4=C(c5nc(CO)co5)N=C(O4)[C@H](C4CCCCC4)NC1=O)c1ccccc1NC2O3 (stereo partly drawn) [Compound 60] gave an IC50 (A2058 cells) greater than 1000 nM and an IC50 (U937 cells) of 795 nM.
With COC(=O)c1coc(-c2coc([C@@H]3CCCN3C(=O)[C@H](Cc3ccc4c(c3)[C@@H]3c5ccccc5NC3O4)NC(=O)[C@@H](O)C(C)C)n2)n1 (stereo partly drawn) [Compound 61] the IC50 (A2058 cells) was greater than 1000 nM and the IC50 (U937 cells) was 761 nM.
Work on CC(C)[C@H](O)C(=O)N[C@H]1Cc2ccc3c(c2)C2(C4=C(c5nc(C#N)co5)N=C(O4)[C@H](C(C)(C)C)NC1=O)c1ccccc1N[C@H]2O3 (stereo partly drawn) [Compound 62] yielded an IC50 (A2058 cells) of 2.54 nM and an IC50 (U937 cells) of 15.6 nM.
For CCC(O)(CC)C(=O)N[C@H]1Cc2ccc3c(c2)C2(C4=C(c5nc(C(=O)OC)co5)N=C(O4)[C@H](C(C)(C)C)NC1=O)c1ccccc1N[C@H]2O3 (stereo partly drawn) [Compound 63], the IC50 (A2058 cells) was 15.5 nM and the IC50 (U937 cells) was 1.97 nM.
With CCC(O)(CC)C(=O)N[C@H]1Cc2ccc3c(c2)C2(C4=C(c5nc(CO)co5)N=C(O4)[C@H](C(C)(C)C)NC1=O)c1ccccc1N[C@H]2O3 (stereo partly drawn) [Compound 64] the IC50 (A2058 cells) was 43.2 nM and the IC50 (U937 cells) was 45.9 nM.
CCC(O)(CC)C(=O)N[C@H]1Cc2ccc3c(c2)C2(C4=C(c5nc(C#N)co5)N=C(O4)[C@H](C(C)(C)C)NC1=O)c1ccccc1N[C@H]2O3 (stereo partly drawn) [Compound 65] gave an IC50 (A2058 cells) of 16.8 nM and an IC50 (U937 cells) of 67.6 nM.
CC(C)=CC(=O)N[C@H]1Cc2ccc3c(c2)C2(C4=C(c5nc(C#N)co5)N=C(O4)[C@H](C(C)(C)C)NC1=O)c1ccccc1N[C@H]2O3 (stereo partly drawn) [Compound 66] was tested, and the IC50 (A2058 cells) was 186 nM and the IC50 (U937 cells) was 215 nM.
In the case of CC(C)C[C@H](O)C(=O)NC1Cc2ccc3c(c2)C2(C4=C(c5nc(C#N)co5)N=C(O4)[C@H](C(C)(C)C)NC1=O)c1ccccc1N[C@H]2O3 (stereo partly drawn) [Compound 67], the IC50 (A2058 cells) is reported as 35.8 nM and the IC50 (U937 cells) is reported as 89.7 nM.
CCC(C)(O)C(=O)N[C@H]1Cc2ccc3c(c2)C2(C4=C(c5nc(C#N)co5)N=C(O4)[C@H](C(C)(C)C)NC1=O)c1ccccc1N[C@H]2O3 (stereo partly drawn) [Compound 68] gave an IC50 (A2058 cells) of 21.1 nM and an IC50 (U937 cells) of 59.6 nM.
For CCC(C)(C)C(=O)NC1Cc2ccc3c(c2)C2(C4=C(c5nc(C#N)co5)N=C(O4)[C@H](C(C)(C)C)NC1=O)c1ccccc1N[C@H]2O3 (stereo partly drawn) [Compound 69], the IC50 (A2058 cells) was 95.5 nM and the IC50 (U937 cells) was 225 nM.
Work on COC(=O)c1coc(-c2nc3oc2[C@@]24c5ccccc5NC2Oc2c(Cl)cc(cc24)CC(NC(=O)[C@@H](O)C(C)C)C(=O)N[C@H]3C(C)C)n1 (stereo partly drawn) [Compound 70] yielded an IC50 (A2058 cells) of 77 nM and an IC50 (U937 cells) of 15 nM.
Work on COC(=O)c1coc(-c2nc3oc2[C@@]24c5ccccc5NC2Oc2c(F)cc(cc24)CC(NC(=O)[C@@H](O)C(C)C)C(=O)N[C@H]3C(C)C)n1 (stereo partly drawn) [Compound 71] yielded an IC50 (A2058 cells) of 67 nM and an IC50 (U937 cells) of 9.2 nM.
CCCCCCc1cc2cc3c1O[C@@H]1Nc4ccccc4C31c1oc(nc1-c1nc(C(=O)OC)co1)[C@H](C(C)C)NC(=O)[C@@H](NC(=O)[C@@H](O)C(C)C)C2 (stereo partly drawn) [Compound 72] was tested, and the IC50 (A2058 cells) was greater than 300 nM and the IC50 (U937 cells) was 213 nM.
COC(=O)c1coc(-c2nc3oc2C24c5ccccc5N[C@H]2Oc2ccc(cc24)CC[C@H](NC(=O)[C@@H](O)C(C)C)C(=O)N[C@H]3C(C)(C)C)n1 (stereo partly drawn) [Compound 73] gave an IC50 (A2058 cells) of less than 0.1 nM and an IC50 (U937 cells) of less than 0.1 nM.
COC(=O)c1coc(-c2nc3oc2[C@]24c5ccccc5NC2Oc2ccc(cc24)CC[C@H](NC(=O)[C@@H](O)C(C)C)C(=O)N[C@H]3C(C)(C)C)n1 (stereo partly drawn) [Compound 74] gave an IC50 (A2058 cells) greater than 100 nM and an IC50 (U937 cells) greater than 100 nM.
In the case of CC(C)[C@H](O)C(=O)N[C@H]1CCc2ccc3c(c2)[C@]2(C4=C(c5nc(CO)co5)N=C(O4)[C@H](C(C)(C)C)NC1=O)c1ccccc1NC2O3 (stereo partly drawn) [Compound 75], the IC50 (A2058 cells) is reported as 1.89 nM and the IC50 (U937 cells) is reported as 6.55 nM.
In the case of COC(=O)c1coc(-c2nc3oc2C24c5cc(ccc5O[C@@H]2N(S(C)(=O)=O)c2ccccc24)C[C@H](NC(=O)[C@@H](O)C(C)C)C(=O)N[C@H]3C(C)C)n1 (stereo partly drawn) [Compound 76], the IC50 (A2058 cells) is reported as greater than 1000 nM and the IC50 (U937 cells) is reported as 614 nM.
Work on CC(C)[C@H](O)C(=O)N[C@H]1Cc2ccc3c(c2)C2(C4=C(c5nc(CO)co5)N=C(O4)[C@H](C(C)C)NC1=O)c1ccccc1N(S(C)(=O)=O)[C@H]2O3 (stereo partly drawn) [Compound 77] yielded an IC50 (A2058 cells) greater than 1000 nM and an IC50 (U937 cells) of 777 nM.
For COC(=O)c1coc(-c2nc3oc2C24c5cc(ccc5O[C@@H]2N(C)c2ccccc24)C[C@H](NC(=O)[C@@H](O)C(C)C)C(=O)N[C@H]3C(C)C)n1 (stereo partly drawn) [Compound 78], the IC50 (A2058 cells) was 114 nM and the IC50 (U937 cells) was 17.4 nM.
With COC(=O)c1coc(-c2nc3oc2C24c5cc(ccc5O[C@@H]2Nc2c(-c5ccccc5)cccc24)C[C@H](NC(=O)[C@@H](O)C(C)C)C(=O)N[C@H]3C(C)C)n1 (stereo partly drawn) [Compound 79] the IC50 (A2058 cells) was 270 nM and the IC50 (U937 cells) was 210 nM.
In the case of COC(=O)c1coc(-c2nc3oc2C24c5cc(F)ccc5N[C@H]2Oc2ccc(cc24)C[C@H](NC(=O)[C@@H](O)C(C)C)C(=O)N[C@H]3C(C)C)n1 (stereo partly drawn) [Compound 80], the IC50 (A2058 cells) is reported as 13.6 nM and the IC50 (U937 cells) is reported as 4.07 nM.
CC(C)[C@H](O)C(=O)N[C@H]1Cc2ccc3c(c2)[C@]2(C4=C(c5nc(CO)co5)N=C(O4)[C@H](C(C)C)NC1=O)c1cc(F)ccc1N[C@@H]2O3 [Compound 81] was tested, and the IC50 (A2058 cells) was 55.1 nM and the IC50 (U937 cells) was 32.8 nM.
Work on COC(=O)c1coc(-c2nc3oc2C24c5ccc(F)cc5N[C@H]2Oc2ccc(cc24)C[C@H](NC(=O)[C@@H](O)C(C)C)C(=O)N[C@H]3C(C)C)n1 (stereo partly drawn) [Compound 82] yielded an IC50 (A2058 cells) of 40.9 nM and an IC50 (U937 cells) of 3.4 nM.
CC(C)[C@H](O)C(=O)N[C@H]1Cc2ccc3c(c2)C2(C4=C(c5nc(CO)co5)N=C(O4)[C@H](C(C)C)NC1=O)c1ccc(F)cc1N[C@H]2O3 (stereo partly drawn) [Compound 83] was tested, and the IC50 (A2058 cells) was 184 nM and the IC50 (U937 cells) was 60.6 nM.
COC(=O)c1coc(-c2nc3oc2C24c5cc(Cl)ccc5N[C@H]2Oc2ccc(cc24)C[C@H](NC(=O)[C@@H](O)C(C)C)C(=O)N[C@H]3C(C)(C)C)n1 (stereo partly drawn) [Compound 84] gave an IC50 (A2058 cells) of 19.5 nM and an IC50 (U937 cells) of 10.1 nM.
In the case of CC(C)[C@H](O)C(=O)N[C@H]1Cc2ccc3c(c2)[C@]2(C4=C(c5nc(CO)co5)N=C(O4)[C@H](C(C)(C)C)NC1=O)c1cc(F)ccc1N[C@@H]2O3 [Compound 85], the IC50 (A2058 cells) is reported as 0.47 nM and the IC50 (U937 cells) is reported as 0.74 nM.

From US8592469B2, “Diazonamide analogs” (Joyant Pharmaceuticals, Inc., priority 2012, dated 2013)
